Article PMC11117541, “The Truncated Peptide AtPEP1^(9–23) Has the Same Function as AtPEP1^(1–23) in Inhibiting Primary Root Growth and Triggering of ROS Burst” (Antioxidants, 2024)
Where a SMILES comes first, the peptide text is derived from it.

How the values were obtained:
[1] = system: WOX5::GFP (quiescent center); assay: WOX5::GFP reporter in quiescent centre of root tips; format: in vivo, Arabidopsis thaliana; conditions: 500 nM peptide, four days, confocal microscopy, n = 20
Description: (§1) All plants used in this study are of the Arabidopsis thaliana accession Columbia-0 (Col-0) background, including the wild-type, mutant line pepr1-2pepr2-2 (pepr1/2, AT1G73080 and AT1G17750) and transgenic lines expressing WOX5::GFP (AT3G11260) and DR5::GFP [35]. DR5 was created by petforming site-directed mutations in a natural composite auxin response element (AuxRE) found in the soybean GH3 promoter. DR5 consisted of tandem direct repeats of 11 bp (CCTTTTGTCTC)
(§2) Five-day-old seedlings were transferred from 1/2 MS medium to 1/2 MS medium supplemented with or without elicitor for four days. The transferred seedlings were photographed every day for a total of four days. The primary root length was measured using ImageJ software (V 1.8.0). After four days of elicitor treatment, the root tips of seedlings were observed by microscope and the fluorescence from root tip cells of GFP tag seedlings were excited with a 488 nm laser. Emission was detected between 495 and 550 nm. The images were acquired with an OLYMPUS FV10-MCPUS confocal laser scanning microscope. Images were processed using LSM image examiner software (FV10-ASW3.1) and Adobe Photoshop CS4 version 11.0.2 (Adobe Systems, San Jose, CA, USA).

[2] = system: shoot (rosette) of Arabidopsis seedlings; assay: Shoot growth, diameter of rosettes (Figure S1); format: in vivo, Arabidopsis thaliana; conditions: for Mean diff, A2 - B2, diameter of rosettes: two-way ANOVA output, by table order A = mock, B = peptide, row 2 = Day 4
[3] = system: DR5::GFP (auxin maxima in root tips); assay: DR5::GFP reporter for auxin maxima in root tips; format: in vivo, Arabidopsis thaliana; conditions: 500 nM peptide, four days, confocal microscopy, n = 20, one-way ANOVA
Description: as §1, §2

[4] = system: root tip cells of Arabidopsis seedlings; assay: Root tip morphology, generation of root hairs; format: in vivo, Arabidopsis thaliana; conditions: peptide for 4 days, up to 500 nM, n = 20
Experimental: as §2

[5] = system: ROS burst in Arabidopsis leaves (Col-0); assay: ROS burst, luminol dependent assay in Col-0 leaves; format: cell-based, Arabidopsis thaliana; conditions: for concentration at which ROS burst is triggered: Col-0 leaf pieces, luminol L-012/HRP, luminescence recorded 30 min
Experimental: The measurement of ROS burst was carried out using a luminol dependent assay. Briefly, leaf samples were cut into small pieces and placed in a 96-well plate containing 0.1 mL reaction solution (2 µg/mL horseradish peroxidase, 200 µM luminol L-012). Luminescence signal was immediately measured upon the addition elicitor peptides and recorded for a period of 30 min. The total relative light units (RLUs) measured within a 15 min time was plotted.

[6] = system: primary root growth of Arabidopsis thaliana Col-0 seedlings; format: in vivo; conditions: n = 20; for concentration at which primary root growth is inhibited: five-day-old Col-0 seedlings transferred to 1/2 MS with peptide, up to 4 days; for inhibitory effect on primary root growth (in words): different concentrations up to 500 nM, 4 days
Experimental: For sterile seedlings, the seeds were first surface-sterilized with 75% ethanol twice. Then, after cold treatment at 4 °C for 2 days, the seeds were germinated on 1/2 Murashige-Skoog (MS) medium supplemented with 0.8% agar and 1% sucrose. For four-week-old plants, the seeds after cold treatment at 4 °C for 2 days were grown in a 1:1 mixture of sand: humus. Both growth environments were carried out in a growth cabinet with 12 h of light, a temperature of 22 °C, and 60% humidity.
as §2

## CC(C)[C@H](NC(=O)[C@H](CCCCN)NC(=O)[C@H](CCC(=O)O)NC(=O)[C@H](CCCCN)NC(=O)CNC(=O)[C@H](CCCNC(=N)N)NC(=O)[C@H](CCC(N)=O)NC(=O)[C@@H](N)CCCCN)C(=O)N[C@@H](CO)C(=O)N[C@@H](CO)C(=O)NCC(=O)N[C@@H](CCCNC(=N)N)C(=O)N1CCC[C@H]1C(=O)NCC(=O)N[C@@H](CCC(N)=O)C(=O)N[C@@H](Cc1c[nH]cn1)C(=O)N[C@@H](CC(N)=O)C(=O)O [AtPEP1^(7–23)] (H-KQRGKEKVSSGRPGQHN-OH; N-terminus and C-terminus assumed)
[1]
  WOX5 expression (WOX5::GFP signaling width) compared with control: increase in WOX5 expression
[2]
  Mean diff, A2 - B2, diameter of rosettes: 0.1995
[3]
  maximum levels of auxin in root tips (DR5::GFP fluorescence) compared with control: significantly reduced
[4]
  generation of root hairs / maturation of root tip cells (in words): more efficient than AtPEP1^(1–23)
[5]; n = 4
  concentration at which ROS burst is triggered: 10 nM

## AtPEP1^(1–23): plant elicitor peptide 1 (PEP1) from Arabidopsis thaliana, composed of 23 amino acids, immune elicitor (ATKVKAKQRGKEKVSSGRPGQHN; Elicitor peptide 1; UniProt Q9LV87 70-92, looked up) [reference compound]
[1]
  WOX5 expression (WOX5::GFP signaling width) compared with control: increase in WOX5 expression
[2]
  Mean diff, A2 - B2, diameter of rosettes: 0.05081
[3]
  maximum levels of auxin in root tips (DR5::GFP fluorescence) compared with control: significantly reduced
[6]
  concentration at which primary root growth is inhibited: 50 nM
[6]; five-day-old Col-0 seedlings, 4 days on peptide medium
  concentration that completely inhibited the primary root growth: 500 nM
[4]
  generation of root hairs / maturation of root tip cells (in words): promoted the generation of root hairs
[5]; 10 nM peptide
  total ROS within 15 min compared to the control group: no significant difference
[5]; n = 4
  concentration at which ROS burst is triggered: 10 nM
[5]; total RLU within 15 min, one-way ANOVA, n = 4
  concentration at which total ROS within 15 min was significantly higher than the control: greater than or equal to 100 nM

## AtPEP1^(5–23): truncated peptide of AtPEP1(1–23), residues 5–23 (KAKQRGKEKVSSGRPGQHN; Elicitor peptide 1; UniProt Q9LV87 74-92, looked up, fragment)
[1]
  WOX5 expression (WOX5::GFP signaling width) compared with control: increase in WOX5 expression
[2]
  Mean diff, A2 - B2, diameter of rosettes: 0.1141
[3]
  maximum levels of auxin in root tips (DR5::GFP fluorescence) compared with control: significantly reduced
[4]
  generation of root hairs / maturation of root tip cells (in words): more efficient than AtPEP1^(1–23)
[5]; n = 4
  concentration at which ROS burst is triggered: 10 nM

## AtPEP1^(9–22): C-terminal truncated peptide created from AtPEP1(9–23) (RGKEKVSSGRPGQH; Elicitor peptide 1; UniProt Q9LV87 78-91, looked up, fragment)
[2]
  Mean diff, A2 - B2, diameter of rosettes: -0.02327
[3]
  maximum levels of auxin in root tips (DR5::GFP fluorescence) compared with control: did not show significant changes
[4]
  generation of root hairs / maturation of root tip cells (in words): did not promote the generation of root hairs
[5]; n = 4
  concentration at which ROS burst is triggered: 100 nM

## AtPEP1^(9–23): truncating eight amino acids from the N-terminus of AtPEP1(1–23) (RGKEKVSSGRPGQHN; Elicitor peptide 1; UniProt Q9LV87 78-92, looked up, fragment)
[1]
  WOX5 expression (WOX5::GFP signaling width) compared with control: increase in WOX5 expression
[2]
  Mean diff, A2 - B2, diameter of rosettes: 0.1045
[3]
  maximum levels of auxin in root tips (DR5::GFP fluorescence) compared with control: significantly reduced
[4]
  generation of root hairs / maturation of root tip cells (in words): more efficient than AtPEP1^(1–23)
[5]; n = 4
  concentration at which ROS burst is triggered: 10 nM

## AtPEP1^(11–23): truncated peptide of AtPEP1(1–23), residues 11–23 (KEKVSSGRPGQHN; Elicitor peptide 1; UniProt Q9LV87 80-92, looked up, fragment)
[1]
  WOX5 expression (WOX5::GFP signaling width) compared with control: increase in WOX5 expression
[2]
  Mean diff, A2 - B2, diameter of rosettes: 0.1293
[3]
  maximum levels of auxin in root tips (DR5::GFP fluorescence) compared with control: significantly reduced
[6]
  inhibitory effect on primary root growth (in words): lower than that of AtPEP1^(1–23)
  concentration at which primary root growth is inhibited: 5 nM
[4]
  generation of root hairs / maturation of root tip cells (in words): did not promote the generation of root hairs
[5]; n = 4
  concentration at which ROS burst is triggered: 10 nM

## AtPEP1^(13–23): truncating 12 amino acids from the N-terminus of AtPEP1(1–23) (KVSSGRPGQHN; Elicitor peptide 1; UniProt Q9LV87 82-92, looked up, fragment)
[2]; Figure S1, Table S7
  inhibitory effect on the shoot (in words): does not inhibit
[2]
  Mean diff, A2 - B2, diameter of rosettes: 0.03538
[3]
  maximum levels of auxin in root tips (DR5::GFP fluorescence) compared with control: did not show significant changes
[6]
  inhibitory effect on primary root growth (in words): did not show an obvious inhibitory effect
[4]
  generation of root hairs / maturation of root tip cells (in words): did not promote the generation of root hairs
[5]; n = 4
  concentration at which ROS burst is triggered: 10 nM
